From patent publication US12544395B2, “Combination compositions comprising a beta-lactamase inhibitor and uses thereof” (priority 2018, dated 2026)

Experiments:
K. pneumoniae 170375 = assay: Broth microdilution MIC (strain enzymes: SHV-12, CTX-M15 and TEM-1); assay type: cell-based
E. coli 3327 = assay: Broth microdilution MIC (strain enzymes: TEM-1, SHV-12); assay type: cell-based
[1] = test system: E. coli expressing TEM-1+CTX-M-15, CTX-M-15, and KPC-2+SHV-12; assay: Murine ascending UTI model, three strains; assay type: in vivo, mice; details: added to ceftibuten at 3, 10, 30, 100, and 300 mg/kg, SC every 12 hours for 3 days
E. coli SI-AIRT-4 = assay: Broth microdilution MIC (strain enzymes: TEM-1); assay type: cell-based
E. coli SI-PBLII = assay: Broth microdilution MIC (strain enzymes: CTX-M2, TEM-1); assay type: cell-based
E. coli BAS 1 = assay: Broth microdilution MIC (strain enzymes: none detected); assay type: cell-based
K. pneumoniae KI (KCl) = assay: Broth microdilution MIC (strain enzymes: TEM-10); assay type: cell-based
K. pneumoniae KP 8 = assay: Broth microdilution MIC (strain enzymes: TEM-10, TEM-1, CTX-M15); assay type: cell-based
E. coli 2806 = assay: Broth microdilution MIC (strain enzymes: SHV-12, TEM-1); assay type: cell-based
E. coli SI-M004 = assay: Broth microdilution MIC (strain enzymes: SHV-2, GES-12); assay type: cell-based

CCC(=O)N[C@H]1Cc2cccc(C(=O)O)c2OB1O [Compound 2, (R)-2-hydroxy-3-propionamido-3,4-dihydro-2H-benzo[e][1,2]oxaborinine-8-carboxylic acid]
0.03 mg/L: MIC of ceftibuten (CTB) (K. pneumoniae KP 8; with inhibitor at 2 μg/mL) | MIC of ceftibuten (CTB) (K. pneumoniae KP 8; with inhibitor at 4 μg/mL)
0.25 mg/L: MIC of ceftibuten (CTB) (E. coli 3327; with inhibitor at 1 μg/mL) | MIC of ceftibuten (CTB) (E. coli 3327; with inhibitor at 2 μg/mL) | MIC of ceftibuten (CTB) (E. coli 3327; with inhibitor at 4 μg/mL) | MIC of cefalexin (LEX) (E. coli SI-AIRT-4; with inhibitor at 1 μg/mL) | MIC of cefdinir (CDR) (E. coli SI-AIRT-4; with inhibitor at 1 μg/mL) | MIC of cefalexin (LEX) (E. coli SI-AIRT-4; with inhibitor at 2 μg/mL) | MIC of cefdinir (CDR) (E. coli SI-AIRT-4; with inhibitor at 2 μg/mL) | MIC of cefalexin (LEX) (E. coli SI-AIRT-4; with inhibitor at 4 μg/mL) | MIC of cefdinir (CDR) (E. coli SI-AIRT-4; with inhibitor at 4 μg/mL) | MIC of cefalexin (LEX) (E. coli SI-PBLII; with inhibitor at 1 μg/mL) | MIC of cefdinir (CDR) (E. coli SI-PBLII; with inhibitor at 1 μg/mL) | MIC of cefixime (CFM) (E. coli SI-PBLII; with inhibitor at 1 μg/mL) | MIC of cefalexin (LEX) (E. coli SI-PBLII; with inhibitor at 2 μg/mL) | MIC of cefdinir (CDR) (E. coli SI-PBLII; with inhibitor at 2 μg/mL) | MIC of cefixime (CFM) (E. coli SI-PBLII; with inhibitor at 2 μg/mL) | MIC of cefalexin (LEX) (E. coli SI-PBLII; with inhibitor at 4 μg/mL) | MIC of cefdinir (CDR) (E. coli SI-PBLII; with inhibitor at 4 μg/mL) | MIC of cefixime (CFM) (E. coli SI-PBLII; with inhibitor at 4 μg/mL) | MIC of cefixime (CFM) (K. pneumoniae KI (KCl); with inhibitor at 4 μg/mL) | MIC of cefalexin (LEX) (K. pneumoniae KP 8; with inhibitor at 1 μg/mL) | MIC of cefdinir (CDR) (K. pneumoniae KP 8; with inhibitor at 1 μg/mL) | MIC of cefixime (CFM) (K. pneumoniae KP 8; with inhibitor at 1 μg/mL) | MIC of cefixime (CFM) (E. coli 2806; with inhibitor at 1 μg/mL) | MIC of cefalexin (LEX) (E. coli 2806; with inhibitor at 4 μg/mL) | MIC of cefdinir (CDR) (E. coli 2806; with inhibitor at 4 μg/mL) | MIC of ceftibuten (CTB) (E. coli SI-M004; with inhibitor at 1 μg/mL)
3.2 log10 CFU/g: bacterial titers lower than ceftibuten alone, bladders [1]
up to 4 log10 CFU/mL: bacterial titers lower than ceftibuten alone, urine [1]
0.5 mg/L: MIC of cefalexin (LEX) (E. coli 3327; with inhibitor at 1 μg/mL) | MIC of cefdinir (CDR) (E. coli 3327; with inhibitor at 1 μg/mL) | MIC of cefalexin (LEX) (E. coli 3327; with inhibitor at 2 μg/mL) | MIC of cefdinir (CDR) (E. coli 3327; with inhibitor at 2 μg/mL) | MIC of cefixime (CFM) (E. coli 3327; with inhibitor at 2 μg/mL) | MIC of cefalexin (LEX) (E. coli 3327; with inhibitor at 4 μg/mL) | MIC of cefdinir (CDR) (E. coli 3327; with inhibitor at 4 μg/mL) | MIC of cefixime (CFM) (E. coli 3327; with inhibitor at 4 μg/mL) | MIC of ceftibuten (CTB) (E. coli BAS 1; with inhibitor at 4 μg/mL) | MIC of cefalexin (LEX) (E. coli SI-M004; with inhibitor at 1 μg/mL) | MIC of cefdinir (CDR) (E. coli SI-M004; with inhibitor at 1 μg/mL) | MIC of cefalexin (LEX) (E. coli SI-M004; with inhibitor at 2 μg/mL) | MIC of cefdinir (CDR) (E. coli SI-M004; with inhibitor at 2 μg/mL) | MIC of cefalexin (LEX) (E. coli SI-M004; with inhibitor at 4 μg/mL) | MIC of cefdinir (CDR) (E. coli SI-M004; with inhibitor at 4 μg/mL)
0.125 mg/L: MIC of cefixime (CFM) (E. coli SI-AIRT-4; with inhibitor at 1 μg/mL) | MIC of cefixime (CFM) (E. coli SI-AIRT-4; with inhibitor at 2 μg/mL) | MIC of ceftibuten (CTB) (E. coli SI-PBLII; with inhibitor at 1 μg/mL) | MIC of ceftibuten (CTB) (E. coli SI-PBLII; with inhibitor at 2 μg/mL) | MIC of ceftibuten (CTB) (E. coli SI-PBLII; with inhibitor at 4 μg/mL) | MIC of cefalexin (LEX) (K. pneumoniae KI (KCl); with inhibitor at 1 μg/mL) | MIC of cefdinir (CDR) (K. pneumoniae KI (KCl); with inhibitor at 1 μg/mL) | MIC of ceftibuten (CTB) (K. pneumoniae KI (KCl); with inhibitor at 1 μg/mL) | MIC of cefalexin (LEX) (K. pneumoniae KI (KCl); with inhibitor at 2 μg/mL) | MIC of cefdinir (CDR) (K. pneumoniae KI (KCl); with inhibitor at 2 μg/mL) | MIC of cefalexin (LEX) (K. pneumoniae KI (KCl); with inhibitor at 4 μg/mL) | MIC of cefdinir (CDR) (K. pneumoniae KI (KCl); with inhibitor at 4 μg/mL) | MIC of ceftibuten (CTB) (K. pneumoniae KI (KCl); with inhibitor at 4 μg/mL) | MIC of cefalexin (LEX) (K. pneumoniae KP 8; with inhibitor at 2 μg/mL) | MIC of cefdinir (CDR) (K. pneumoniae KP 8; with inhibitor at 2 μg/mL) | MIC of cefixime (CFM) (K. pneumoniae KP 8; with inhibitor at 2 μg/mL) | MIC of cefalexin (LEX) (K. pneumoniae KP 8; with inhibitor at 4 μg/mL) | MIC of cefdinir (CDR) (K. pneumoniae KP 8; with inhibitor at 4 μg/mL) | MIC of cefixime (CFM) (K. pneumoniae KP 8; with inhibitor at 4 μg/mL) | MIC of cefalexin (LEX) (E. coli 2806; with inhibitor at 1 μg/mL) | MIC of cefdinir (CDR) (E. coli 2806; with inhibitor at 1 μg/mL) | MIC of cefalexin (LEX) (E. coli 2806; with inhibitor at 2 μg/mL) | MIC of cefdinir (CDR) (E. coli 2806; with inhibitor at 2 μg/mL) | MIC of cefixime (CFM) (E. coli 2806; with inhibitor at 2 μg/mL) | MIC of ceftibuten (CTB) (E. coli 2806; with inhibitor at 2 μg/mL) | MIC of cefixime (CFM) (E. coli 2806; with inhibitor at 4 μg/mL) | MIC of ceftibuten (CTB) (E. coli 2806; with inhibitor at 4 μg/mL) | MIC of ceftibuten (CTB) (E. coli SI-M004; with inhibitor at 2 μg/mL) | MIC of ceftibuten (CTB) (E. coli SI-M004; with inhibitor at 4 μg/mL)
8 mg/L: MIC of cefalexin (LEX) (K. pneumoniae 170375; with inhibitor at 1 μg/mL) | MIC of cefdinir (CDR) (K. pneumoniae 170375; with inhibitor at 1 μg/mL) | MIC of cefixime (CFM) (E. coli BAS 1; with inhibitor at 1 μg/mL)
0.06 mg/L: MIC of ceftibuten (CTB) (K. pneumoniae 170375; with inhibitor at 1 μg/mL) | MIC of ceftibuten (CTB) (K. pneumoniae 170375; with inhibitor at 2 μg/mL) | MIC of ceftibuten (CTB) (K. pneumoniae 170375; with inhibitor at 4 μg/mL) | MIC of ceftibuten (CTB) (E. coli SI-AIRT-4; with inhibitor at 1 μg/mL) | MIC of ceftibuten (CTB) (E. coli SI-AIRT-4; with inhibitor at 2 μg/mL) | MIC of cefixime (CFM) (E. coli SI-AIRT-4; with inhibitor at 4 μg/mL) | MIC of ceftibuten (CTB) (E. coli SI-AIRT-4; with inhibitor at 4 μg/mL) | MIC of ceftibuten (CTB) (K. pneumoniae KI (KCl); with inhibitor at 2 μg/mL) | MIC of ceftibuten (CTB) (K. pneumoniae KP 8; with inhibitor at 1 μg/mL) | MIC of ceftibuten (CTB) (E. coli 2806; with inhibitor at 1 μg/mL)
2 mg/L: MIC of cefalexin (LEX) (K. pneumoniae 170375; with inhibitor at 4 μg/mL) | MIC of cefdinir (CDR) (K. pneumoniae 170375; with inhibitor at 4 μg/mL) | MIC of cefixime (CFM) (E. coli BAS 1; with inhibitor at 2 μg/mL) | MIC of cefalexin (LEX) (E. coli BAS 1; with inhibitor at 4 μg/mL) | MIC of cefdinir (CDR) (E. coli BAS 1; with inhibitor at 4 μg/mL)
4 mg/L: MIC of cefalexin (LEX) (K. pneumoniae 170375; with inhibitor at 2 μg/mL) | MIC of cefdinir (CDR) (K. pneumoniae 170375; with inhibitor at 2 μg/mL) | MIC of cefixime (CFM) (E. coli SI-M004; with inhibitor at 1 μg/mL) | MIC of cefixime (CFM) (E. coli SI-M004; with inhibitor at 2 μg/mL)
1 mg/L: MIC of cefixime (CFM) (K. pneumoniae 170375; with inhibitor at 1 μg/mL) | MIC of cefixime (CFM) (K. pneumoniae 170375; with inhibitor at 2 μg/mL) | MIC of cefixime (CFM) (K. pneumoniae 170375; with inhibitor at 4 μg/mL) | MIC of cefixime (CFM) (E. coli 3327; with inhibitor at 1 μg/mL) | MIC of cefalexin (LEX) (E. coli BAS 1; with inhibitor at 1 μg/mL) | MIC of cefdinir (CDR) (E. coli BAS 1; with inhibitor at 1 μg/mL) | MIC of ceftibuten (CTB) (E. coli BAS 1; with inhibitor at 1 μg/mL) | MIC of cefalexin (LEX) (E. coli BAS 1; with inhibitor at 2 μg/mL) | MIC of cefdinir (CDR) (E. coli BAS 1; with inhibitor at 2 μg/mL) | MIC of ceftibuten (CTB) (E. coli BAS 1; with inhibitor at 2 μg/mL) | MIC of cefixime (CFM) (E. coli BAS 1; with inhibitor at 4 μg/mL) | MIC of cefixime (CFM) (K. pneumoniae KI (KCl); with inhibitor at 1 μg/mL) | MIC of cefixime (CFM) (K. pneumoniae KI (KCl); with inhibitor at 2 μg/mL) | MIC of cefixime (CFM) (E. coli SI-M004; with inhibitor at 4 μg/mL)
